Results published in ChEMBL document CHEMBL1795221, “In vitro and in vivo anticancer activity evaluation of ursolic acid derivatives” (Eur J Med Chem, 2011).
pIC50: −log10 of the molar value. Activity calls are given as the source filed them. The calls are words filed in the database; no cut-off is given here.

Key:
[1] = Cytotoxicity against human HELF cells after 24 hrs by MTT assay; type: cell-based
[2] = test system: HepG2; assay: Induction of apoptosis in human HepG2 cells assessed as increase in caspase-3 activity at 10 to 30 uM after 24 hrs by spectrophotometry; type: functional, cell-based
[3] = test system: HepG2; assay: Cell cycle arrest in human HepG2 cells assessed as accumulation at S phase at 20 uM after 24 hrs using propidium iodide staining by flow cytometric analysis (reference value: 28.66 %); type: functional
[4] = test system: H22; assay: Antitumor activity against mouse H22 cells xenografted in kunming mouse assessed as inhibition of tumor growth at 150 mg/kg, ip for 7 days; type: functional; conditions: 168 h, route intraperitoneal
[5] = test system: HepG2; assay: cells; conditions: Homo sapiens, HepG2, 24 h
Description: Cytotoxicity against human HepG2 cells after 24 hrs by MTT assay

[6] = test system: HepG2; assay: Cell cycle arrest in human HepG2 cells assessed as accumulation at G0/G1 phase at 30 uM after 24 hrs using propidium iodide staining by flow cytometric analysis (reference value: 57.03 %); type: functional
[7] = test system: H22; assay: Antitumor activity against mouse H22 cells xenografted in kunming mouse assessed as inhibition of tumor growth at 50 mg/kg, ip for 7 days; type: functional; conditions: 168 h, read-out: INH, route intraperitoneal
[8] = test system: HepG2; assay: Cell cycle arrest in human HepG2 cells assessed as accumulation at G2/M phase at 10 uM after 24 hrs using propidium iodide staining by flow cytometric analysis (reference value: 14.31 %); type: functional
[9] = test system: HepG2; assay: Cell cycle arrest in human HepG2 cells assessed as accumulation at S phase at 30 uM after 24 hrs using propidium iodide staining by flow cytometric analysis (reference value: 28.66 %); type: functional
[10] = test system: HepG2; assay: Cell cycle arrest in human HepG2 cells assessed as accumulation at G2/M phase at 20 uM after 24 hrs using propidium iodide staining by flow cytometric analysis (reference value: 14.31 %); type: functional
[11] = test system: HepG2; assay: Cell cycle arrest in human HepG2 cells assessed as reduction at G2/M phase after 24 hrs using propidium iodide staining by flow cytometric analysis; type: functional, cell-based
[12] = test system: HepG2; assay: Cell cycle arrest in human HepG2 cells assessed as accumulation at G0/G1 phase at 10 uM after 24 hrs using propidium iodide staining by flow cytometric analysis (reference value: 57.03 %); type: functional
[13] = test system: HepG2; assay: Cell cycle arrest in human HepG2 cells assessed as accumulation at G2/M phase at 30 uM after 24 hrs using propidium iodide staining by flow cytometric analysis (reference value: 14.31 %); type: functional
[14] = test system: HepG2; assay: Cell cycle arrest in human HepG2 cells assessed as accumulation at S phase at 10 uM after 24 hrs using propidium iodide staining by flow cytometric analysis (reference value: 28.66 %); type: functional
[15] = test system: H22; assay: Antitumor activity against mouse H22 cells xenografted in kunming mouse assessed as increase in body weight at 50 to 150 mg/kg, ip for 7 days; type: functional, organism-based
[16] = test system: SH-SY5Y; assay: Cytotoxicity against human SH-SY5Y cells after 24 hrs by MTT assay; type: functional, cell-based
[17] = test system: BGC-823; assay: Induction of apoptosis in human BGC823 cells assessed as increase in caspase-3 activity at 10 to 30 uM after 24 hrs by spectrophotometry; type: functional, cell-based
[18] = test system: BGC-823; assay: Cytotoxicity against human BGC823 cells after 24 hrs by MTT assay; type: functional, cell-based; conditions: BGC-823, 24 h
[19] = test system: HepG2; assay: Cell cycle arrest in human HepG2 cells assessed as accumulation at G0/G1 phase at 20 uM after 24 hrs using propidium iodide staining by flow cytometric analysis (reference value: 57.03 %); type: functional
[20] = test system: HeLa; assay: cells; conditions: Homo sapiens, 24 h
Description: Cytotoxicity against human HeLa cells after 24 hrs by MTT assay

[21] = test system: HepG2; assay: Induction of apoptosis in human HepG2 cells at 10 to 30 uM after 24 hrs using annexin V-EGFP/PI double staining by flow cytometry; type: functional, cell-based
[22] = test system: HepG2; assay: Induction of apoptosis in human HepG2 cells at 10 to 30 uM after 24 hrs using acridine orange staining by fluorescence microscopy; type: functional, cell-based
[23] = test system: H22; assay: Antitumor activity against mouse H22 cells xenografted in kunming mouse assessed as inhibition of tumor growth at 100 mg/kg, ip for 7 days; type: functional; conditions: 168 h, route intraperitoneal
[24] = test system: HepG2; assay: Cell cycle arrest in human HepG2 cells assessed as accumulation at G0/G1 phase after 24 hrs using propidium iodide staining by flow cytometric analysis; type: functional, cell-based
[25] = test system: HepG2; assay: Cell cycle arrest in human HepG2 cells assessed as accumulation at S phase after 24 hrs using propidium iodide staining by flow cytometric analysis; type: functional, cell-based

Structure (SMILES): CC(=O)O[C@H]1CC[C@]2(C)[C@H]3CC=C4[C@@H]5[C@@H](C)[C@H](C)CC[C@]5(C(=O)N(CCO)CCO)CC[C@@]4(C)[C@]3(C)CC[C@H]2C1(C)C
- pIC50 [1]: 4.42
- Activity [2]: Dose-dependent effect
- Activity [3]: 37.43%
- inhibition in vivo at 150 mg/kg [4]: 43%
- pIC50 [5]: 4.69
- Activity [6]: 51.57%
- inhibition in vivo at 50 mg/kg [7]: 36.6%
- Activity [8]: 11.98%
- Activity [9]: 41.53%
- Activity [10]: 9.66%
- Activity [11]: Dose-dependent effect
- Activity [12]: 55.89%
- Activity [13]: 6.9%
- Activity [14]: 32.13%
- Activity [15]: Active
- pIC50 [16]: 4.88
- Activity [17]: Dose-dependent effect
- pIC50 [18]: 4.81
- Activity [19]: 52.91%
- pIC50 [20]: 4.96
- Activity [21]: Dose-dependent effect
- Activity [22]: Active
- inhibition in vivo at 100 mg/kg [23]: 45.6%
- Activity [24]: Dose-dependent effect
- Activity [25]: Dose-dependent effect
